Results: patent US8952024B2, “Herbicidal pyrimidone derivatives” (E I du Pont de Nemours and Company, priority 2009, dated 2015)

Columns and labels:
Type in all cases: in vivo
[1] = test system: giant foxtail (Setaria faberii); test: Test A pre-/postemergence plant response
Description: (§1) Seeds of barnyardgrass (Echinochloa crus-galli), large crabgrass (Digitaria sanguinalis), giant foxtail (Setaria faberii), morningglory (Ipomoea spp.), pigweed (Amaranthus retroflexus), velvetleaf (Abutilon theophrasti), wheat (Triticum aestivum) and corn (Zea mays) were planted into a blend of loam soil and sand and treated preemergence with a directed soil spray using test chemicals formulated in a non-phytotoxic solvent mixture which included a surfactant. At the same time these species were also treated with postemergence applications of test compounds formulated in the same manner.
(§2) Plants ranged in height from two to ten cm and were in the one- to two-leaf stage for the postemergence treatment. Treated plants and untreated controls were maintained in a greenhouse for approximately ten days, after which time all treated plants were compared to untreated controls and visually evaluated for injury. Plant response ratings, summarized in Table A, are based on a 0 to 100 scale where 0 is no effect and 100 is complete control. A dash (-) response means no test result.

[2] = test system: wheat (Triticum aestivum); test: Test A pre-/postemergence plant response
Description: as §1, §2

[3] = test system: morningglory (Ipomoea spp.); test: Test A pre-/postemergence plant response
Description: as §1, §2

[4] = test system: barnyardgrass (Echinochloa crus-galli); test: Test A pre-/postemergence plant response
Description: as §1, §2

[5] = test system: large crabgrass (Digitaria sanguinalis); test: Test A pre-/postemergence plant response
Description: as §1, §2

[6] = test system: pigweed (Amaranthus retroflexus); test: Test A pre-/postemergence plant response
Description: as §1, §2

[7] = test system: corn (Zea mays); test: Test A pre-/postemergence plant response
Description: as §1, §2

[8] = test system: velvetleaf (Abutilon theophrasti); test: Test A pre-/postemergence plant response
Description: as §1, §2

[9] = test system: umbrella sedge (Cyperus difformis); test: Test B flooded paddy test; settings: for Plant response rating, Flood, Sedge, Umbrella: 250 g ai/ha, flooded paddy test, visual rating on 0 to 100 scale (0 no effect, 100 complete control) after 13 to 15 days; for Plant response rating, Sedge, Umbrella: Flood (flooded paddy test), 13 to 15 days
Summary of the method: (§3)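 Flooded-pot test: water raised to 3 cm above soil when treating, compound put in the water, level unchanged thereafter. Plants were at 2 leaves. Readout after 13 to 15 days, visual, relative to controls; 0 signifies no effect and 100 complete control.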

[10] = test system: rice (Oryza sativa); test: Test B flooded paddy test; settings: for Plant response rating, Flood, Rice: 250 g ai/ha, flooded paddy test, visual rating on 0 to 100 scale (0 no effect, 100 complete control) after 13 to 15 days; for Plant response rating, Rice: Flood (flooded paddy test), 13 to 15 days
Summary of the method: as §3

[11] = test system: barnyardgrass (Echinochloa crus-galli); test: Test B flooded paddy test; settings: for Plant response rating, Flood, Barnyardgrass: 250 g ai/ha, flooded paddy test, visual rating on 0 to 100 scale (0 no effect, 100 complete control) after 13 to 15 days; for Plant response rating, Barnyardgrass: Flood (flooded paddy test), 13 to 15 days
Summary of the method: as §3

[12] = test system: ducksalad (Heteranthera limosa); test: Test B flooded paddy test; settings: for Plant response rating, Flood, Ducksalad: 250 g ai/ha, flooded paddy test, visual rating on 0 to 100 scale (0 no effect, 100 complete control) after 13 to 15 days; for Plant response rating, Ducksalad: Flood (flooded paddy test), 13 to 15 days
Summary of the method: as §3

[13] = Postemergence, 125 g ai/ha, visual injury, 0 to 100 scale (0 no effect, 100 complete control), approx. ten days
[14] = Postemergence, 500 g ai/ha, 0 to 100 scale, 0 = no effect, 100 = complete control, approx. ten days
[15] = Preemergence, 125 g ai/ha, 0 to 100 scale, 0 = no effect, 100 = complete control
[16] = Preemergence, 500 g ai/ha, visual injury, 0 to 100 scale (0 no effect, 100 complete control), approx. ten days
[17] = 31 g ai/ha, scale of 0 to 100 where 0 is no effect and 100 is complete control
[18] = 62 g ai/ha, scale 0 to 100, 0 is no effect, 100 is complete control
[19] = 125 g ai/ha, scale 0 to 100, 0 is no effect, 100 is complete control
[20] = Postemergence, 500 g ai/ha, visual injury, 0 to 100 scale (0 no effect, 100 complete control), approx. ten days
[21] = Preemergence, 125 g ai/ha, 0 to 100 scale where 0 is no effect and 100 is complete control, approximately ten days
[22] = Preemergence, 500 g ai/ha, 0 to 100 scale, 0 = no effect, 100 = complete control
[23] = Postemergence, 125 g ai/ha, 0 to 100 scale where 0 is no effect and 100 is complete control
[24] = 62 g ai/ha, scale of 0 to 100 where 0 is no effect and 100 is complete control
[25] = Flood, 31 g ai/ha, scale 0 to 100 (0 no effect, 100 complete control)

In the case of C=CCn1c(-c2ccccc2)ncc(C(=O)C2=C(O)CCCC2=O)c1=O [Compound 23], the “Foxtail, Giant plant response rating” value [1, 13] is reported as 10, the “Plant response rating, Foxtail, Giant” value [1, 14] is reported as 50 and the “Plant response rating, Foxtail, Giant” value [1, 15] is reported as 0. The “Plant response rating, Foxtail, Giant” value [1, 16] was 20, the “Wheat plant response rating” value [2, 13] was 0 and the “Plant response rating, Wheat” value [2, 14] was 0. For the same molecule, the “Plant response rating, Wheat” value [2, 15] was 0, the “Plant response rating, Wheat” value [2, 16] was 0 and the “Morningglory plant response rating” value [3, 13] was 50. For the same molecule, the “Plant response rating, Morningglory” value [3, 14] was 100, the “Plant response rating, Morningglory” value [3, 15] was 0 and the “Plant response rating, Morningglory” value [3, 16] was 70. The “Barnyardgrass plant response rating” value [4, 13] was 10, the “Plant response rating, Barnyardgrass” value [4, 14] was 60 and the “Plant response rating, Barnyardgrass” value [4, 15] was 0. For the same molecule, the “Plant response rating, Barnyardgrass” value [4, 16] was 70, the “Crabgrass, Large plant response rating” value [5, 13] was 30 and the “Plant response rating, Crabgrass, Large” value [5, 14] was 60. For the same molecule, the “Plant response rating, Crabgrass, Large” value [5, 15] was 10, the “Plant response rating, Crabgrass, Large” value [5, 16] was 90 and the “Pigweed plant response rating” value [6, 13] was 80. The “Plant response rating, Pigweed” value [6, 14] was 100, the “Plant response rating, Pigweed” value [6, 15] was 50 and the “Plant response rating, Pigweed” value [6, 16] was 70. The “Corn plant response rating” value [7, 13] was 0, the “Plant response rating, Corn” value [7, 14] was 0 and the “Plant response rating, Corn” value [7, 15] was 0. The “Plant response rating, Corn” value [7, 16] was 0, the “Velvetleaf plant response rating” value [8, 13] was 100 and the “Plant response rating, Velvetleaf” value [8, 14] was 100. For the same molecule, the “Plant response rating, Velvetleaf” value [8, 15] was 40, the “Plant response rating, Velvetleaf” value [8, 16] was 100 and the “Plant response rating, Flood, Sedge, Umbrella” value [9] was 45. For the same molecule, the “Plant response rating, Sedge, Umbrella” value [9, 17] was 20, the “Plant response rating, Sedge, Umbrella” value [9, 18] was 30 and the “Plant response rating, Sedge, Umbrella” value [9, 19] was 40. For the same molecule, the “Plant response rating, Flood, Rice” value [10] was 15, the “Plant response rating, Rice” value [10, 17] was 0 and the “Plant response rating, Rice” value [10, 18] was 0. For the same molecule, the “Plant response rating, Rice” value [10, 19] was 0, the “Plant response rating, Flood, Barnyardgrass” value [11] was 0 and the “Plant response rating, Barnyardgrass” value [11, 17] was 0. The “Plant response rating, Barnyardgrass” value [11, 18] was 0, the “Plant response rating, Barnyardgrass” value [11, 19] was 0 and the “Plant response rating, Flood, Ducksalad” value [12] was 45. For the same molecule, the “Plant response rating, Ducksalad” value [12, 17] was 20, the “Plant response rating, Ducksalad” value [12, 18] was 35 and the “Plant response rating, Ducksalad” value [12, 19] was 45.
For O=C(C1=C(O)C2CCC(C2)C1=O)c1cnc(-c2cccc(Br)c2)n(C2CCCCC2)c1=O (centres unmarked) [Compound 252], the “Plant response rating, Foxtail, Giant” value [1, 13] was 40, the “Foxtail, Giant plant response rating” value [1, 20] was 60 and the “Plant response rating, Foxtail, Giant” value [1, 21] was 0. For the same molecule, the “Plant response rating, Foxtail, Giant” value [1, 22] was 10, the “Plant response rating, Wheat” value [2, 13] was 0 and the “Wheat plant response rating” value [2, 20] was 10. For the same molecule, the “Plant response rating, Wheat” value [2, 21] was 0, the “Plant response rating, Wheat” value [2, 22] was 0 and the “Plant response rating, Morningglory” value [3, 13] was 80. For the same molecule, the “Morningglory plant response rating” value [3, 20] was 100, the “Plant response rating, Morningglory” value [3, 21] was 0 and the “Plant response rating, Morningglory” value [3, 22] was 10. For the same molecule, the “Plant response rating, Barnyardgrass” value [4, 23] was 80, the “Barnyardgrass plant response rating” value [4, 20] was 90 and the “Plant response rating, Barnyardgrass” value [4, 21] was 0. For the same molecule, the “Plant response rating, Barnyardgrass” value [4, 22] was 0, the “Plant response rating, Crabgrass, Large” value [5, 23] was 30 and the “Crabgrass, Large plant response rating” value [5, 20] was 60. The “Plant response rating, Crabgrass, Large” value [5, 21] was 10, the “Plant response rating, Crabgrass, Large” value [5, 22] was 20 and the “Plant response rating, Pigweed” value [6, 13] was 70. For the same molecule, the “Pigweed plant response rating” value [6, 20] was 90, the “Plant response rating, Pigweed” value [6, 21] was 0 and the “Plant response rating, Pigweed” value [6, 22] was 40. For the same molecule, the “Plant response rating, Corn” value [7, 23] was 0, the “Corn plant response rating” value [7, 20] was 10 and the “Plant response rating, Corn” value [7, 21] was 0. For the same molecule, the “Plant response rating, Corn” value [7, 22] was 0, the “Plant response rating, Velvetleaf” value [8, 13] was 70 and the “Velvetleaf plant response rating” value [8, 20] was 90. The “Plant response rating, Velvetleaf” value [8, 21] was 20, the “Plant response rating, Velvetleaf” value [8, 22] was 50 and the “Plant response rating, Flood, Sedge, Umbrella” value [9] was 0. The “Plant response rating, Sedge, Umbrella” value [9, 24] was 0, the “Plant response rating, Flood, Rice” value [10] was 0 and the “Plant response rating, Rice” value [10, 24] was 0. For the same molecule, the “Plant response rating, Flood, Barnyardgrass” value [11] was 0, the “Plant response rating, Barnyardgrass” value [11, 24] was 0 and the “Plant response rating, Flood, Ducksalad” value [12] was 0. The “Plant response rating, Ducksalad” value [12, 24] was 0.
COCCOCCn1c(-c2cc(F)cc(F)c2)ncc(C(=O)C2=C(O)CCCC2=O)c1=O [Compound 171] was tested, and the “Plant response rating, Foxtail, Giant” value [1, 23] was 60, the “Foxtail, Giant plant response rating” value [1, 20] was 90 and the “Plant response rating, Foxtail, Giant” value [1, 15] was 30. The “Plant response rating, Foxtail, Giant” value [1, 22] was 80, the “Plant response rating, Wheat” value [2, 23] was 20 and the “Wheat plant response rating” value [2, 20] was 50. The “Plant response rating, Wheat” value [2, 15] was 20, the “Plant response rating, Wheat” value [2, 22] was 40 and the “Plant response rating, Morningglory” value [3, 23] was 100. For the same molecule, the “Morningglory plant response rating” value [3, 20] was 100, the “Plant response rating, Morningglory” value [3, 15] was 0 and the “Plant response rating, Morningglory” value [3, 22] was 60. The “Plant response rating, Barnyardgrass” value [4, 23] was 50, the “Barnyardgrass plant response rating” value [4, 20] was 90 and the “Plant response rating, Barnyardgrass” value [4, 15] was 20. The “Plant response rating, Barnyardgrass” value [4, 22] was 70, the “Plant response rating, Crabgrass, Large” value [5, 23] was 60 and the “Crabgrass, Large plant response rating” value [5, 20] was 90. For the same molecule, the “Plant response rating, Crabgrass, Large” value [5, 15] was 70, the “Plant response rating, Crabgrass, Large” value [5, 22] was 100 and the “Plant response rating, Pigweed” value [6, 23] was 100. For the same molecule, the “Pigweed plant response rating” value [6, 20] was 100, the “Plant response rating, Pigweed” value [6, 15] was 50 and the “Plant response rating, Pigweed” value [6, 22] was 80. For the same molecule, the “Plant response rating, Corn” value [7, 23] was 30, the “Corn plant response rating” value [7, 20] was 40 and the “Plant response rating, Corn” value [7, 15] was 0. For the same molecule, the “Plant response rating, Corn” value [7, 22] was 20, the “Plant response rating, Velvetleaf” value [8, 23] was 100 and the “Velvetleaf plant response rating” value [8, 20] was 100. The “Plant response rating, Velvetleaf” value [8, 15] was 80, the “Plant response rating, Velvetleaf” value [8, 22] was 100 and the “Plant response rating, Sedge, Umbrella” value [9, 19] was 80. For the same molecule, the “Sedge, Umbrella plant response rating” value [9, 25] was 70, the “Plant response rating, Rice” value [10, 19] was 0 and the “Rice plant response rating” value [10, 25] was 0. For the same molecule, the “Plant response rating, Barnyardgrass” value [11, 19] was 20, the “Barnyardgrass plant response rating” value [11, 25] was 0 and the “Plant response rating, Ducksalad” value [12, 19] was 70. The “Ducksalad plant response rating” value [12, 25] was 40.
